How the values were obtained:
[1] = tested on: MPTP mice model; experiment: Striatal dopaminergic nerve fibers, TH western blot, MPTP model; assay type: in vivo, mouse; settings: PL201+MPTP vs NS+MPTP group, Day 7 after MPTP modeling
Protocol: (§1) The mice were randomly divided into 4 groups: a group in which the mice was administrated with normal saline (NS), a MPTP model group in which the mice was intragastrical administrated with normal saline (NS+MPTP), a group in which the mice was intragastrical administrated with 50 mg of compound PL201 (PL201), and a MPTP model group in which the mice was intragastrical administrated with compound PL201 (PL201+MPTP).
(§2) 11 animals were set in the group in which the mice was administrated with normal saline (NS), 14 animals were set in the MPTP model group in which the mice was intragastrical administrated with normal saline (NS+MPTP), 4 animals were set in the group in which the mice was intragastrically administrated with 50 mg of compound PL201 (PL201), 15 animals were set in the MPTP model group in which the mice was intragastrically administrated with the compound PL201 (PL201+MPTP).
The administration started on the day of animal grouping: mice in the NS and the NS+MPTP group were administrated with normal saline, and mice in the other two groups were administrated with compound PL201 once a day for 7 consecutive days. […]
On Day 7 after MPTP modeling, animals in each group were anesthetized with 10% chloral hydrate. […] The fluorescence signal was detected by Odyssey near-infrared fluorescence scanner and made statistics.

[2] = tested on: MPTP mice model; experiment: Pole-climbing test in MPTP model; assay type: in vivo, mouse; settings: PL201+MPTP vs NS+MPTP group, 50 mg intragastrically once a day, day 3 of the experiment
Protocol: as §1, with “([…]),” for “(NS+MPTP),”
as §2, with “(PL201+MPTP). […]” for “(PL201+MPTP).”
On Day 3 of the experiment, the pole-climbing test of mice was carried out to evaluate the motor coordination ability of the mice. […] The time taken by the mice to turn from head upwards to head downwards completely was recorded as the time to turn around, and the time taken by the mice from moving downwards to all limbs reaching the bottom of the pole was recorded as the time to climb down. Time exceeded 30 seconds was recorded as 30 seconds. […]

[3] = tested on: MPTP mice model; experiment: TH immunohistochemistry of substantia nigra and striatum, MPTP model; assay type: in vivo, mouse; settings: PL201+MPTP vs NS+MPTP group, Day 7 after MPTP modeling
Protocol: as §1, §2
The administration started on the day of animal grouping: mice in the NS and the NS+MPTP group were intragastrically administrated with normal saline, and mice in the other two groups were administrated with compound PL201 once a day for 7 consecutive days. From Day 7, mice in the NS and the PL201 group were intraperitoneally injected with 5 ml/kg normal saline, while mice in the NS+MPTP and the PL201+MPTP group were intraperitoneally injected with 25 mg/kg of MPTP once a day for a total of 5 days. […]

[4] = tested on: Human neural stem cells; experiment: Mitochondrial membrane potential, JC-1 staining; assay type: cell-based; settings: Aβ-treated cells
Protocol: Mitochondrial membrane potential is the main parameter of mitochondrial function, and mitochondrial dysfunction is a prominent feature of AD brain. In this example, the inventors have explored whether PL201 has the effect of improving mitochondrial function by detecting the level of cell mitochondrial membrane potential of human neural stem cells.
Mitochondria was stained with JC-1 for 20 minutes and washed with washing buffer, then immunofluorescence analysis was performed.

[5] = tested on: mouse BV-2 cell line; experiment: Expression of inflammatory factors in LPS-treated BV-2 cells by QPCR; assay type: cell-based; settings: PL201 10, 30, 100 μM, LPS 300 ng/ml, 24 hours
Protocol: Neuroinflammation in the brain of AD is one of the causes of cognitive decline. Microglial cells are the key cells that mediate neuroinflammation. In this example, the inventors have explored whether PL201 has the effect of inhibiting neuroinflammation by detecting the expressions of inflammatory factors on mouse BV-2 cell line.
BV-2 cells were cultured in DMEM, plated to 24 well plates and cultured for 24 hours, then PL201 (0, 10, 30, and 100 μM) and LPS (300 ng/ml) were added. After co-incubation for 24 hours, Trizol was used to extract RNA and the expressions of related inflammatory factors were detected by QPCR.
Mouse BV-2 cells were cultured in DMEM, plated to 24 well plates and cultured for 24 hours, then PL202 (0, 30, 100, and 300 μM) and LPS (300 ng/ml) were added. After co-incubation for 24 hours, Trizol was used to extract RNA and the expressions of related inflammatory factors were detected by QPCR.

SMILES: COc1cc(/C=C/C(=O)OC2OC(C)C(O)C(O)C2O)ccc1O [PL201, (α-L-rhamnopyranosyl) ferulic acid ester]
- level of striatal dopaminergic nerve fibers (TH western blot) [1]: significantly increased
- time to climb down [2]: reduced
- time to turn around [2]: reduced
- level of striatal dopaminergic nerve fibers (TH immunohistochemistry, mean optical density) [3]: significantly increased
- number of dopaminergic neurons in substantia nigra (TH positive cells) [3]: significantly increased
- mitochondrial membrane potential [4]: mitigated the deleterious effect of Aβ to a lesser extent
- expression of inflammatory factor IL-1β [5]: significantly inhibit
- expression of inflammatory factor TNFα [5]: significantly inhibit

Source: patent publication US11643428B2, “Therapeutic drug for neurodegenerative disease and application thereof” (SHANGHAI PHARMACEUTICALS HOLDING CO., LTD., priority 2018, dated 2023)
